Test results as given in patent US20210032806A1, “ANTIMICROBIAL FABRIC TREATMENT” (The Procter & Gamble Company, priority 2019, published 2021).
Values after ≈ are worked out from the molar mass of the structure shown.

How the values were obtained:
Format in all cases: cell-based
[1] = tested on: Staphylococcus aureus (S. aureus—ATCC #6538); test: Minimum Biocidal Concentration (MBC) in suspension, S. aureus; conditions: 6 minutes contact time, 5% horse serum soil load
Method: (§1) The antimicrobial efficacy of the antimicrobial agent in the aqueous liquor is determined by measuring its Minimum Biocidal Concentration (MBC). The MBC is defined as the lowest absolute concentration of the particular antimicrobial active which provides complete kill (zero bacterial growth). The MBC of the bispyridinium alkane antimicrobial active is determined against the bacterium, Staphylococcus aureus (S. aureus—ATCC #6538), a gram positive bacterium, and against Escherichia coli (E. coli ATCC #8739) these microorganisms are representative of natural contaminants in many consumer and industrial applications. The bacteria inoculum is prepared by transferring several colonies from a Tryptone Soy Agar (TSA) plate to a saline solution (0.85% NaCl) comprising 5% of horse serum as additional soil load, the bacteria concentration in this saline solution is determined by measuring the % Transmittance at 425 nm and adjusted by either adding more bacteria or more saline solution until the % Transmittance at 425 nm is between 23-25% for S. aureus and 31-33% for E. coli. These % Transmittance values correspond to a bacteria concentration of 10^8 CFU/ml.
(§2) The antimicrobial agent was added to the aqueous liquor to be used in the method of the present invention at a level of 200 ppm, or 100 ppm or 50 ppm. 200 μL of the antimicrobial aqueous liquor was dosed into one well of row A of a 96 well microtiter plate. Each subsequent well (rows B to G) were dosed with 100 μL of the same aqueous liquor, without the addition of the antimicrobial agent. 100 μL of the antimicrobial aqueous liquor was transferred from row A to row B and mixed. 100 μL of the antimicrobial aqueous liquor was then transferred from row B to row C and mixed, and the process repeated to row G. As such, the concentration of the antimicrobial agent underwent two-fold dilution in adjacent wells, while the concentration of any adjunct present in the aqueous liquor remained constant across all the wells in the same column.
10 μL of the 10^8 CFU/ml bacteria suspension in saline was added to wells A to F of the microtiter plate with row G kept as a nil bacteria control. The final volume in each well was 110 μL, except for row G which comprised 100 μL of the hard surface cleaning composition and no bacteria suspension. Bacterial inoculation to each column was staggered by 30 seconds to allow for equal incubation times in all wells so that the contact time between the bacteria and the antimicrobial active for all samples was 6 mins. After this contact time, 10 μL of each test solution was transferred to 90 μL of neutraliser solution (Modified Letheen Broth+1.5% Polysorbate 80, supplied by BioMérieux) to stop the antimicrobial action of the antimicrobial active matching the stagger of the inoculation. 2 μL of this solution was plated onto a TSA plate matching the stagger of the inoculation so that all samples are exposed to the neutralizer for the same period of time. The plate is incubated at 32.5° C. for 24-48 h for S. aureus, and 24 h for E. coli. MBC concentration is taken as the lowest concentration of the antimicrobial active at which no visible colony growth is observed on the TSA plate.
(§3) The antibacterial efficacy of the bispyridinium alkane octenidine hydrochloride was compared to that of N-(3-aminopropyl)-N-dodecylpropane-1,3-diamine (Lonzabac 12.30-Lonza) and n-alkyl dimethyl benzyl ammonium chloride/n-alkyl dimethyl ethylbenzyl ammonium chloride (BTC2125-Stepan) in different aqueous liquors. The minimal biocidal concentration (MBC) in suspension of each antibacterial active against a gram positive bacterium (Staphylococcus aureus) and a gram negative bacterium (Escherichia coli) was determined after 6 minutes contact time.

[2] = tested on: Escherichia coli (E. coli ATCC #8739); test: Minimum Biocidal Concentration (MBC) in suspension, E. coli; conditions: 6 minutes contact time, 5% horse serum soil load; for MBC: Escherichia coli, ATCC8739, 0.1 h
Method: as §1, §2
10 μL of the 10^8 CFU/ml bacteria suspension in saline was added to wells A to F of the microtiter plate with row G kept as a nil bacteria control. […]
as §3

[3] = tested on: Staphylococcus aureus (S. aureus—ATCC #6538); test: Antibacterial efficacy on cotton fabrics; conditions: cotton fabric, 625 ppm active in liquor with 3750 ppm C12-C14 EO7, 1 h contact; for Number of bacteria recovered from treated fabrics: nil AB reference 9.1 × 10^5 CFU/ml
Method: The bactericidal efficacy on fabric surfaces of treatments with antimicrobial aqueous liquors comprising different antimicrobial agents was determined against the bacterium Staphylococcus aureus (S. aureus—ATCC #6538). The bacteria inoculum was prepared by transferring several colonies from a Tryptone Soy Agar (TSA) plate to a saline solution (0.85% NaCl) comprising 5% horse serum as additional soil load, the bacteria concentration in this saline solution was determined by measuring the % Transmittance at 425 nm and adjusted by either adding more bacteria or more saline solution until the % Transmittance at 425 nm is between 23-25% which corresponds to a bacteria concentration of 10^8 CFU/ml.
Fabric carriers, 1 cm×1 cm disks of cotton sterilized by autoclaving, were inoculated with 30 μL of the 10^8 CFU/ml bacteria inoculum and incubated for 20 mins at 32° C. After this incubation period, 3 fabric carriers were placed within bundles of 10 clean sterile cotton disks and secured by placing a sterile 30 mm paperclip to the edge of the bundle. The fabric bundles were placed in 30 ml of antimicrobial aqueous liquors to be used in the method of the present invention comprising 3750 ppm of C12-C14 EO7 alkyl ethoxylate non ionic surfactant and 625 ppm of either bispyridinium alkane (octenidine dihydrochloride), N-(3-aminopropyl)-N-dodecylpropane-1,3-diamine (Lonzabac 12.30) or benzalkonium chloride (Sigma-Aldrich CAS number 63449-41-2) as antimicrobial actives. The contact time between the bacteria in the fabric carriers and the antimicrobial aqueous liquor was 1 h. After this contact time, each fabric bundle was rinsed for 5 minutes with water and the 3 fabric carries transferred to 9 ml of neutralizer solution (Modified Letheen Broth+1.5% Polysorbate 80, supplied by BioMérieux) to stop the antimicrobial action of the antimicrobial active. The neutralizer tube containing the fabric carriers was vortexed in a Genie 2 vortexer set at speed 7 for 30 seconds. Ten-fold dilutions of the neutralizer+fabric carrier solution were prepared by transferring 1 ml of the neutralizer solution to 9 ml of neutralizer solution, this solution was further diluted in neutralizer solution following the same protocol so that serial ten-fold dilutions were obtained. 100 μL of each of the serial dilutions were plated on a TSA plate, plates were incubated at 32° C. for 18 hours, after this incubation time, the number of colonies in each plate was counted. The target dilution used to determine the bactericidal efficacy of aqueous liquor of the method of the present invention was the one delivering 30-300 CFU in the plate, the data reported for each antimicrobial active is the average of the bacteria number in three plates multiplied by the target dilution. The log reduction for each antibacterial treatment vs nil antibacterial active reference is the log 10 of the number obtained by dividing the number of colonies recovered from the fabrics treated with the nil antibacterial reference aqueous liquor by the number of colonies recovered from the fabrics treated with aqueous liquors comprising the different antimicrobial actives.
Cotton fabrics inoculated with bacteria were treated for 1 hour with aqueous liquors comprising 3750 ppm of C12-C14 EO7 alkyl ethoxylate non ionic surfactant and either no antibacterial active (ref) or 625 ppm of octenidine hydrochloride, 625 ppm of Lonzabac 12.30 or 625 ppm of benzalkonium chloride as antibacterial actives. After the treatment, the bacteria remaining on the treated fabrics were extracted and quantified. It can be seen that the treatment done with the aqueous liquor comprising octenidine hydrochloride provides better antibacterial efficacy, i.e. less bacteria remaining on fabrics, and higher log reduction, than the treatments done with aqueous liquors comprising either Lonzabac or benzalkonium chloride.

[4] = aqueous liquor 2: Octyliminodipropionate (Ampholak YJH 40) 0.1%
[5] = aqueous liquor 3: C12-C14 EO7 alcohol ethoxylate 0.1%
[6] = aqueous liquor 5: Sodium lauroamphohydroxypropylsulfonate (Miranol JS) 0.0062%
[7] = aqueous liquor 7: Octyliminodipropionate (Ampholak YJH 40) 0.0062%
[8] = aqueous liquor 8: C12-C14 EO7 alcohol ethoxylate 0.0062%

| Molecule | MBC S. aureus ([1]; aqueous liquor 1: deionized water) | MBC S. aureus [1, 4] | MBC S. aureus [1, 5] | MBC S. aureus [1, 6] | MBC E. coli [2, 7] | MBC E. coli [2, 8] | Log reduction vs treatment with nil AB active reference [3] | Number of bacteria recovered from treated fabrics [3] | MBC ([1]; Staphylococcus aureus, ATCC6538, 0.1 h, aqueous liquor 1: deionized water) | MBC S. aureus ([1]; aqueous liquor 4: Disodium capryloamphodiacetate (Mackam 2CY75) 0.025%) | MBC [2, 7] | MBC [2, 8] |
| --- | --- | --- | --- | --- | --- | --- | --- | --- | --- | --- | --- | --- |
| CCCCCCCCN=c1ccn(CCCCCCCCCCn2ccc(=NCCCCCCCC)cc2)cc1.Cl.Cl [Octenidine, octenidine dihydrochloride] | 3.125 ppm | 3.125 ppm | 6.25 ppm | 3.125 ppm | 3.125 ppm | 6.25 ppm | Log 2.5 | 2.8 × 10^3 CFU/ml |  |  |  |  |
| benzalkonium chloride |  |  |  |  |  |  | Log 1.2 | 5.8 × 10^4 CFU/ml |  |  |  |  |
| CCCCCCCCCCCCN(CCCN)CCCN [Lonzabac 12.30, N-(3-aminopropyl)-N-dodecylpropane-1,3-diamine] |  | 25 ppm | 25 ppm | 25 ppm |  |  | Log 0.7 | 1.9 × 10^5 CFU/ml | 25 mg/L (≈ 83.5 µM) | 25 ppm | 50 mg/L (≈ 167 µM) | 25 mg/L (≈ 83.5 µM) |
